From the NIST ThermoML archive (doi:10.1016/j.tca.2016.01.009)
± gives the expanded uncertainty stated by the source.

Conditions: Crystal; visual observation

Normal melting temperature: 78.70 ± 0.48 °C
SMILES: OCc1cn(Cc2ccccc2)nn1 [(1-benzyl-1H-1,2,3-triazol-4-yl)methanol]
